Experimental data reported in article PMC11272611, “Phase Ib and pharmacokinetics study of alpelisib, a PIK3CA inhibitor, and capecitabine in patients with advanced solid tumors” (Frontiers in Oncology, 2024).
Read-outs that look alike come from different tables or passages of the source.

Tests used:
[1] = tested on: advanced solid malignancies with PIK3CA alterations; set-up: method as in PMID 29401002; conditions: single-agent alpelisib, once daily; first-in-human phase I; cited from earlier work
[2] = Pharmacokinetics of alpelisib and capecitabine in plasma (LC-MS/MS, non-compartmental); format: in vivo, human; conditions: for half-life / AUC(0-t) / Cmax: mean (range); for AUC(0-t): read-out: AUC0-6h; for AUC: range across dose escalation (dose levels 0 to 2), read-out: area under the concentration-time-curve (AUC)
Description: The pharmacokinetic (PK) analysis was conducted in all patients who received at least one dose of alpelisib and capecitabine combination therapy. Blood samples were collected at specified time points, including pre-dose, 1, 2, 4, and 6 hours post-dose, on day 1 of cycle 1. Measurements of alpelisib and capecitabine were carried out with a validated LC-MS/MS assay. PK parameters, including maximum plasma concentration (Cmax), time to reach maximum plasma concentration (tmax), area under the plasma concentration-time curve (AUC), and elimination half-life (t1/2), were calculated using non-compartmental methods. […] The data were presented as the mean (range) and standard deviation (SD).

[3] = set-up: method as in PMID 21332655; conditions: monotherapy, salvage regimens in Korea, retrospective data; cited from earlier work
[4] = human, plasma, oral, Dose level 0 (n=3): alpelisib 200mg+capecitabine 1000mg/m^2, day 1 of cycle 1
[5] = human, plasma, oral, Dose level 0 (n=3): alpelisib 200mg+capecitabine 1000mg/m^2, plasma, day 1 of cycle 1
[6] = human, plasma, oral, Dose level 1 (n=6): alpelisib 300mg+capecitabine 1000mg/m^2, day 1 of cycle 1
[7] = human, plasma, oral, Dose level 1 (n=6): alpelisib 300mg+capecitabine 1000mg/m^2, plasma, day 1 of cycle 1
[8] = human, plasma, oral, across dose levels 0, 1 and 2, read-out: time to reach peak concentration (tmax)

| Tmax ([2]; human, plasma, oral, Dose level 1 (n=6): alpelisib 300mg+capecitabine 1000mg/m^2, day 1 of cycle 1, ± SD, read-out: tmax) [h] | Compound | MTD [1] [mg] | Tmax ([2]; Dose level 0 (n=3): alpelisib 200mg+capecitabine 1000mg/m^2, day 1 of cycle 1, ± SD) [h] | Tmax ([2]; Dose level 1 (n=6): alpelisib 300mg+capecitabine 1000mg/m^2, day 1 of cycle 1, ± SD) [h] | Alpelisib exposure (Cmax and AUC0-12) with concomitant capecitabine ([2]; co-administration in patients) | half-life [2, 4] [h] | AUC(0-t) [2, 4] [ng·h/mL] | Cmax [2, 5] [ng/mL] | half-life [2, 6] [h] | AUC(0-t) [2, 6] [ng·h/mL] | Cmax [2, 7] [ng/mL] | Tmax [2, 8] [h] | AUC ([2]; human, plasma, oral) [ng·h/mL] | disease control rate [3] [%] |
| --- | --- | --- | --- | --- | --- | --- | --- | --- | --- | --- | --- | --- | --- | --- |
| – | Cc1nc(NC(=O)N2CCC[C@H]2C(N)=O)sc1-c1ccnc(C(C)(C)C(F)(F)F)c1 [alpelisib] | 400 | 2 ± 0.6 | 4 ± 1.8 | unaffected | 6.5 | 4930 | 1170 | 9.29 | 5070 | 1240 | 2 to 4 | 4930 to 8190 | – |
| 2 | CCCCCOC(=O)Nc1nc(=O)n([C@@H]2O[C@H](C)[C@@H](O)[C@H]2O)cc1F [capecitabine] | – | – | – | – | 0.89 | 2670 | 2500 | 0.63 | 6000 | 4160 | 1 to 2 | 2670 to 8710 | 60 |
